In assay [1] the test system is breast cancer. Briefly: Retrospective cohort analysis of claims data: 1-year recurrence of breast cancer in women with a history of breast cancer (Objective B). It counts as in vivo. From the text: (§1) We set out to assess the 1-year incidence rate of breast cancer among women treated with prasterone compared to matched controls of untreated VVA women (Objective A). We also assessed the 1-year recurrence rate of breast cancer among women treated with prasterone with a history of breast cancer compared to matched controls of untreated VVA women (Objective B).
(§2) In order to evaluate whether total exposure to prasterone in the follow-up window alters the results of the primary objectives A and B, we used sensitivity analyses to stratify patients based on cumulative days of supply.
(§3) This retrospective cohort analysis was based on claims data from the Integrated Dataverse (IDV) database from Symphony Health Solutions. Data included in the analysis spanned a 5-year period from February 2015 through January 2020. For both objectives, the index date was defined as the first prasterone prescription fill date for treated women and as the initial VVA diagnosis date for untreated women (FIG. 1). Data were included from women who were at least 45 years of age and had at least one year of data available before and after the index date. Women treated with vaginal estrogen or ospem ifene were excluded. History of breast cancer prior to the index date was assessed. Before matching, 47,395 patients with at least one prescription of intravaginal prasterone (6.5 mg suppository) filled and no history of breast cancer were included and 2,986 with a history of breast cancer. Before matching again, 669,623 women were included in the pool of untreated VVA patients without a history of breast cancer, and 53,896 with a history of breast cancer (FIG. 2).
(§4) To ensure a balanced risk profile across treatment groups the women treated with prasterone were matched with a 1:1 ratio to untreated women based on the following parameters (FIG. 3): • Calendar year • Age • Prior to the index date: • Cancer diagnosis • Breast cancer diagnosis • Use of chemotherapy • Family history of breast cancer • Mammography • Use of estrogen therapy • Obesity and hyperlipidemia • Assessed during the 12 months prior to the index date • Charlson Elixhauser comorbidity index
(§5) Primary objectives A and B included all women meeting the inclusion criteria and having at least one prescription of prasterone filled. We then set minimum exposure thresholds to stratify patients based on the length of exposure. Thresholds were set at least 90 or 180 days of supply. Incidence (objective A) and recurrence (objective B) analyses were conducted in these new groups.

The test system of assay [2] is breast cancer. Briefly: Retrospective cohort analysis of claims data: 1-year incidence of breast cancer (Objective A). Type of assay: in vivo, women.
From the text: as §1, §2, §3, §4, §5

The test system of assay [3] is breast intraepithelial neoplasia. The note with it: 5 mg/d for 3 years; 55% of women menopaused; cited from earlier work.
Assay [4] concerns breast cancer. The following applies: postmenopausal women; testosterone supplements; cited from earlier work.
Setting [5] is: all ages (≥45 years old), any days of supply.
The mark [6] stands for this setting: minimum exposure threshold either 90 days or 180 days of supply.

SMILES strings stand for the structures. Entries after “also recorded” stand apart in the source; their conditions may differ.

As for `C[C@]12CC[C@H](O)CC1=CC[C@@H]1[C@@H]2CC[C@]2(C)C(=O)CC[C@@H]12` [Intravaginal prasterone, dehydroepiandrosterone], the “% of recurrence of breast cancer” value was 41.63% in the assay on breast cancer [1] (45 to 54 years old); 31.42% in the assay on breast cancer [1] (55 to 64 years old); 32.77% in the assay with breast cancer [1] (65 years old and older); 34.21% in the assay on breast cancer [1] (all ages (≥45 years old), any days of supply, history of breast cancer). The “recurrence ratio (prasterone / untreated VVA)” value in the assay with breast cancer [1] (45 to 54 years old) is reported as 0.84; in the assay on breast cancer [1] (55 to 64 years old) it was 0.82; with breast cancer [1] (65 years old and older) it was 0.91; in the assay on breast cancer [1] (setting [5]) it was 0.85; with breast cancer [1] (at least 90 days of supply) it was 0.83; in the assay on breast cancer [1] (at least 180 days of supply), 0.78. For the same compound, the “Recurrence analysis: % of incidence” value turned out to be 30.48% with breast cancer [1] (at least 90 days of supply) and 30.29% in the assay on breast cancer [1] (at least 180 days of supply). Also, the “recurrence of breast cancer compared to the untreated VVA group (in words)” value in the assay on breast cancer [1] (at least one prescription filled, all ages and three age groups) is given as “significantly lower; also recorded: significant reduction of recurrence”. Moreover, in the assay with breast cancer [1] (setting [6]), the “recurrence of breast cancer compared to the untreated VVA groups (in words)” value is on record as “significant reduction”. Also, the “% of incidence of breast cancer” value with breast cancer [2] (45 to 54 years old) was 0.34%; in the assay with breast cancer [2] (55 to 64 years old), 0.37%; in the assay with breast cancer [2] (65 years old and older) it was 0.58%; with breast cancer [2] (all ages (≥45 years old), any days of supply, 1-year, 6.5 mg suppository), 0.39%; with breast cancer [2] (at least 90 days of supply), 0.28%; in the assay with breast cancer [2] (at least 180 days of supply) it was 0.25%. Moreover, the “incidence ratio (prasterone / untreated VVA)” value in the assay on breast cancer [2] (45 to 54 years old) is 0.85; in the assay on breast cancer [2] (55 to 64 years old) it was 0.87; in the assay with breast cancer [2] (65 years old and older), 1.03; in the assay on breast cancer [2] (setting [5]), 0.89; in the assay on breast cancer [2] (at least 90 days of supply) it was 0.55; with breast cancer [2] (at least 180 days of supply) it was 0.48. In the assay on breast cancer [2] (at least one prescription filled, all ages and age groups 45-54, 55-64, 65+), the “incidence of breast cancer compared to the untreated VVA group (in words)” value is listed as “no statistically significant difference; also recorded: no statistical difference”. Besides, the “incidence of breast cancer compared to the untreated VVA groups (in words)” value with breast cancer [2] (setting [6]) is listed as “significant reduction”.

For the compound `CC/C(=C(\c1ccccc1)c1ccc(OCCN(C)C)cc1)c1ccccc1` [Tamoxifen], in assay [3], the “recurrence of breast intraepithelial neoplasia (in words)” value is reported as “halve the recurrence of breast intraepithelial neoplasia”.

Consider `C[C@]12CC[C@H]3[C@@H](CCC4=CC(=O)CC[C@@]43C)[C@@H]1CC[C@@H]2O` [testosterone], for which the “breast cancer incidence (in words)” value in the assay with breast cancer [4] is reported as “reduction of the breast cancer incidence”.
